Values after ≈ are worked out from the molar mass of the structure shown. Read-outs that look alike come from different tables or passages of the source.
Tests used:
WT E. coli = assay: Minimal inhibitory concentration in wild-type E. coli; format: cell-based, Escherichia coli; conditions: wild-type E. coli, 37° C., 16 hours, read-out: MIC (μM) in WT E. coli
Protocol: General Procedure for Determination of Minimal Inhibitory Concentrations
Overnight cultures (5 mL) of bacterial strains were grown in LB media or TSA media (for S. aureus) at 37° C. and with shaking at 220 rpm until saturation. The overnight culture was diluted serially 1:100 (50 μL in 5 mL sterile media) and then 1:100 (250 μL in 25 mL sterile media). The 25 mL of diluted culture was then dispensed to a sterile 96 well plate (Corning #3370). 198 μL of culture were dispensed into row A and 100 μL of this culture were dispensed into rows B-H. Aminocoumarin compound (DMSO stock) were added to the first row and then the row was mixed by pipetting. 100 μL of culture from row A were transferred to row B and the serial dilution continued until the final 100 μL from row H were discarded. The plate was incubated without shaking in a 37° C. for 16 hours and then read by visible light spectrophotometer (Molecular Devices) at 600 nm. The minimal inhibitory concentration (MIC) was determined as the lowest concentration of compound concentration that inhibited the growth of bacteria.

S. aureus RN4220 = assay: Minimal inhibitory concentration, S. aureus RN4220; format: cell-based; conditions: Staphylococcus aureus, RN4220, 16 h, 16 hour minimal inhibitory concentration at 37° C.; read-out: MIC (μM) S. aureus RN4220
In short: (§1)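 Overnight cultures in LB (TSA for S. aureus) at 37 °C, diluted 1:100 twice, then exposed to twofold serial dilutions of compound from DMSO stock. Plates incubated unshaken 16 h at 37 °C and read at OD600. MIC (µM) is the lowest concentration inhibiting growth.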

S. aureus MW2 = assay: Minimal inhibitory concentration, S. aureus MW2; format: cell-based; conditions: Staphylococcus aureus, MRSA, 16 h, 16 hour minimal inhibitory concentration at 37° C.; read-out: MIC (μM) S. aureus MW2 (MRSA)
In short: as §1

E. cloacae 13047 = assay: Minimal inhibitory concentration, E. cloacae 13047; format: cell-based; conditions: Enterobacter cloacae, 13047; 16 hour minimal inhibitory concentration at 37° C.; read-out: MIC (μM) E. cloacae 13047
In short: as §1

A. baumannii 19606 = assay: Minimal inhibitory concentration, A. baumannii 19606; format: cell-based; conditions: Acinetobacter baumannii, 19606, 16 h, 16 hour minimal inhibitory concentration at 37° C.; read-out: MIC (μM) A. baumannii 19606
In short: as §1

K. pneumoniae 700721 = assay: Minimal inhibitory concentration, K. pneumoniae 700721; format: cell-based; conditions: Klebsiella pneumoniae, 700721; 16 hour minimal inhibitory concentration at 37° C.; read-out: MIC (μM) K. pneumoniae 700721
In short: as §1

E. coli MC4100 = assay: Minimal inhibitory concentration, E. coli MC4100; format: cell-based; conditions: Escherichia coli, MC4100, 16 h, 16 hour minimal inhibitory concentration at 37° C.; read-out: MIC (μM) E. coli MC4100 ara+
In short: as §1

E. coli 25922 = assay: Minimal inhibitory concentration, E. coli 25922; format: cell-based; conditions: Escherichia coli, 25922, 16 h, 16 hour minimal inhibitory concentration at 37° C.; read-out: MIC (μM) E. coli 25922
In short: as §1

Structure (SMILES) | MIC (WT E. coli; Escherichia coli) | MIC (WT E. coli) | MIC (S. aureus RN4220) | MIC (S. aureus MW2) | MIC (E. cloacae 13047) | MIC (A. baumannii 19606) | MIC (K. pneumoniae 700721) | MIC (E. coli MC4100) | MIC (E. coli 25922)
CO[C@@H]1[C@H](OC(N)=O)C(O)[C@H](Oc2ccc3c(O)c(NS(=O)(=O)c4cccc(-c5ccccc5)c4)c(=O)oc3c2C)OC1(C)C (stereo partly drawn) [Compound 36] | > 300 µM | – | – | – | – | – | – | – | –
CO[C@@H]1[C@@H](OC(N)=O)[C@@H](O)[C@H](Oc2ccc3c(O)c(NC(=O)c4ccc(O)c(C/C=C/CC(=O)O)c4)c(=O)oc3c2C)OC1(C)C [Compound 80] | – | >300 µM | – | – | – | – | – | – | –
CO[C@@H]1[C@@H](OC(N)=O)[C@@H](O)[C@H](Oc2ccc3c(O)c(NC(=O)c4cccc(Oc5ccc(F)cc5)c4)c(=O)oc3c2C)OC1(C)C [Compound 249] | – | – | 20 µM (≈ 12.8 µg/mL) | 20 µM (≈ 12.8 µg/mL) | > 100 µM | > 50 µM | 20 µM (≈ 12.8 µg/mL) | 5 µM (≈ 3.19 µg/mL) | < 1.56 µM
CO[C@@H]1[C@@H](OC(N)=O)[C@@H](O)[C@H](Oc2ccc3c(O)c(NC(=O)c4ccc5c(c4)oc4ccccc45)c(=O)oc3c2C)OC1(C)C [Compound 250] | – | – | 10 µM (≈ 6.19 µg/mL) | 10 µM (≈ 6.19 µg/mL) | > 100 µM | > 50 µM | > 100 µM | > 100 µM | > 200 µM
CO[C@@H]1[C@@H](OC(N)=O)[C@@H](O)[C@H](Oc2ccc3c(O)c(NC(=O)c4cccc(Oc5ccc(C(F)(F)F)cc5)c4)c(=O)oc3c2C)OC1(C)C [Compound 251] | – | – | 9 µM (≈ 6.2 µg/mL) | 9 µM (≈ 6.2 µg/mL) | > 100 µM | > 50 µM | > 100 µM | 4.5 µM (≈ 3.1 µg/mL) | 9 µM (≈ 6.2 µg/mL)
CO[C@@H]1[C@@H](OC(N)=O)[C@@H](O)[C@H](Oc2ccc3c(O)c(NC(=O)c4ccc(I)c(Oc5ccccc5)c4)c(=O)oc3c2C)OC1(C)C [Compound 252] | – | – | 2.3 µM (≈ 1.72 µg/mL) | 2 µM (≈ 1.49 µg/mL) | > 100 µM | > 50 µM | 38 µM (≈ 28.4 µg/mL) | 17 µM (≈ 12.7 µg/mL) | 33 µM (≈ 24.6 µg/mL)
CO[C@@H]1[C@@H](OC(N)=O)[C@@H](O)[C@H](Oc2ccc3c(O)c(NC(=O)c4ccc([N+](=O)[O-])c(Oc5ccccc5)c4)c(=O)oc3c2C)OC1(C)C [Compound 253] | – | – | 38 µM (≈ 25.3 µg/mL) | 38 µM (≈ 25.3 µg/mL) | > 100 µM | > 50 µM | > 100 µM | 75 µM (≈ 49.9 µg/mL) | 75 µM (≈ 49.9 µg/mL)
CO[C@@H]1[C@@H](OC(N)=O)[C@@H](O)[C@H](Oc2ccc3c(O)c(NC(=O)c4ccc(F)c(Oc5ccccc5)c4)c(=O)oc3c2C)OC1(C)C [Compound 254] | – | – | 10 µM (≈ 6.39 µg/mL) | 10 µM (≈ 6.39 µg/mL) | 79 µM (≈ 50.4 µg/mL) | > 50 µM | 20 µM (≈ 12.8 µg/mL) | 2.4 µM (≈ 1.53 µg/mL) | 5 µM (≈ 3.19 µg/mL)
CO[C@@H]1[C@@H](OC(N)=O)[C@@H](O)[C@H](Oc2ccc3c(O)c(NC(=O)c4ccc(C)c(Oc5ccccc5)c4)c(=O)oc3c2C)OC1(C)C [Compound 255] | – | – | 5 µM (≈ 3.17 µg/mL) | 5 µM (≈ 3.17 µg/mL) | 77 µM (≈ 48.9 µg/mL) | > 50 µM | 10 µM (≈ 6.35 µg/mL) | 2.4 µM (≈ 1.52 µg/mL) | 5 µM (≈ 3.17 µg/mL)
COc1ccc(C(=O)Nc2c(O)c3ccc(O[C@@H]4OC(C)(C)[C@H](OC)[C@@H](OC(N)=O)[C@H]4O)c(C)c3oc2=O)cc1Oc1ccccc1 [Compound 256] | – | – | 19 µM (≈ 12.4 µg/mL) | 19 µM (≈ 12.4 µg/mL) | > 100 µM | > 50 µM | 19 µM (≈ 12.4 µg/mL) | 10 µM (≈ 6.51 µg/mL) | 10 µM (≈ 6.51 µg/mL)
C#Cc1ccc(C(=O)Nc2c(O)c3ccc(O[C@@H]4OC(C)(C)[C@H](OC)[C@@H](OC(N)=O)[C@H]4O)c(C)c3oc2=O)cc1Oc1ccccc1 [Compound 257] | – | – | 5 µM (≈ 3.22 µg/mL) | 5 µM (≈ 3.22 µg/mL) | > 100 µM | > 50 µM | 71 µM (≈ 45.8 µg/mL) | 39 µM (≈ 25.1 µg/mL) | 19 µM (≈ 12.2 µg/mL)
CO[C@@H]1[C@@H](OC(N)=O)[C@@H](O)[C@H](Oc2ccc3c(O)c(NC(=O)c4ccc(Br)c(Oc5ccccc5)c4)c(=O)oc3c2C)OC1(C)C [Compound 258] | – | – | 5 µM (≈ 3.5 µg/mL) | 4.5 µM (≈ 3.15 µg/mL) | > 100 µM | > 50 µM | 20 µM (≈ 14 µg/mL) | 4.5 µM (≈ 3.15 µg/mL) | 18 µM (≈ 12.6 µg/mL)
